# Results from patent publication US8299267B2, “(3-hydroxy-4-amino-butan-2-yl) -3- (2-thiazol-2-yl-pyrrolidine-1-carbonyl) benzamide derivatives and related compounds as beta-secretase inhibitors for treating” (CoMentis, Inc., priority 2007, dated 2012).
# Assays:
# [1] = system: Aβ production in Chinese hamster ovary cells that over-express human APP695 with the London and Swedish mutations; assay: Cellular Aβ IC50 determination (Aβ40 sandwich ELISA); type: cell-based; settings: Cricetulus griseus; Aβ40 in CHO cells over-expressing human APP695, 24 h incubation
# Protocol: The potency of compounds against memapsin 2 activity was determined in a cellular assay of Aβ production. […] Chinese hamster ovary cells that over-express human APP695 with the London and Swedish mutations were seeded in multi-well plates at 10% confluency. Compounds are dissolved in DMSO to concentrations near 1 mM, and diluted into culture media to a final concentration near 4 μM (final 0.4% DMSO). Compounds were diluted serially and applied to cells in multi-well plates 48 h after seeding. Incubation was continued in 5% CO2 at 37° C. for 24 h. Aliquots were removed and assayed for Aβ40 content using a sandwich ELISA (BioSource International). Amount of Aβ40 over the range of concentration of compounds, relative to control incubations, were fit to a 4-parameter IC50 model.
# memapsin 2 = memapsin 2 (Homo sapiens, UniProt P56817); assay: Inhibition of memapsin 2 beta-secretase activity toward fluorogenic substrate FS-2; type: biochemical; settings: memapsin 2, pH 4, 37° C., 20 minutes pre-incubation, substrate FS-2; read-out: M2Ki
# How it was run: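 Memapsin 2 was preincubated with compound 20 min at pH 4, 37 °C, then reacted with fluorogenic substrate FS-2 (MCA-SEVNLDAEFK-DNP), an APP-derived Swedish-variant peptide. Inhibition was followed kinetically by fluorescence.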
# memapsin 2, sequence (P56817 46-501): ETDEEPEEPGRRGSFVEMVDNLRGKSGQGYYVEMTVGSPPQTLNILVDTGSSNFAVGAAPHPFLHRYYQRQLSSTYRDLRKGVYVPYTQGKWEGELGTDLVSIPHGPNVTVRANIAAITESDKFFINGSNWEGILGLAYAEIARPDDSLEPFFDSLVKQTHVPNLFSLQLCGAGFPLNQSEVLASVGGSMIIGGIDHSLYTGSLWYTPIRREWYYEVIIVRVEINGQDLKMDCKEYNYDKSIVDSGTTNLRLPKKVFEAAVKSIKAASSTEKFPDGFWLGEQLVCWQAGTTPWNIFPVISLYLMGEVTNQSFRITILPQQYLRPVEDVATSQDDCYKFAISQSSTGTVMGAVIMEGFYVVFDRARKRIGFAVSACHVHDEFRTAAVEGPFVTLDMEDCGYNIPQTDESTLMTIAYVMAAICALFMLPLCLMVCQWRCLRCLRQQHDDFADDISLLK
Structure (SMILES),IC50 [1] [nM],Ki (memapsin 2) [nM]
"Cc1coc([C@H]2CCCN2C(=O)c2cc(C(=O)N[C@@H](Cc3ccccc3)[C@H](O)CNCc3cncc(C(C)C)c3)cc(N(C)C)c2)n1 [Compound 92, 3-(dimethylamino)-N-((2S,3R)-3-hydroxy-4-((5-isopropylpyridin-3-yl)methylamino)-1-phenylbutan-2-yl)-5-((R)-2-(4-methyloxazol-2-yl)pyrrolidine-1-carbonyl)benzamide]",< 300,< 100
"Cc1coc([C@H]2CCCN2C(=O)c2cncc(C(=O)N[C@@H](Cc3ccccc3)[C@H](O)CNCc3cccc(C(C)(C)C)c3)c2)n1 [Compound 76, N-((2S,3R)-4-(3-tert-butylbenzylamino)-3-hydroxy-1-phenylbutan-2-yl)-5-((R)-2-(4-methyloxazol-2-yl)pyrrolidine-1-carbonyl)nicotinamide]",< 300,< 100
"Cc1cc(C(=O)N2CCC[C@@H]2c2nc(C)cs2)cc(C(=O)N[C@@H](Cc2ccccc2)[C@H](O)CNCc2cccc(C(F)(F)F)c2)n1 [Compound 68, N-((2S,3R)-3-hydroxy-1-phenyl-4-(3-(trifluoromethyl)benzylamino)butan-2-yl)-6-methyl-4-((R)-2-(4-methylthiazol-2-yl)pyrrolidine-1-carbonyl)picolinamide]",< 300,< 100
"Cc1csc([C@H]2CCCN2C(=O)c2cncc(C(=O)N[C@@H](Cc3ccccc3)[C@H](O)CNCc3cccc(C(F)(F)F)c3)c2)n1 [Compound 31, N-((2S,3R)-3-hydroxy-1-phenyl-4-(3-(trifluoromethyl)benzylamino)butan-2-yl)-5-((R)-2-(4-methylthiazol-2-yl)pyrrolidine-1-carbonyl)nicotinamide]",< 300,< 100
"Cc1csc([C@H]2CCCN2C(=O)c2cc(C(=O)N[C@@H](Cc3ccccc3)[C@H](O)CNCc3cccc(C(F)(F)F)c3)cc(-c3cccc(Cl)c3)n2)n1 [Compound 91, 2-(3-chlorophenyl)-N-((2S,3R)-3-hydroxy-1-phenyl-4-(3-(trifluoromethyl)benzylamino)butan-2-yl)-6-((R)-2-(4-methylthiazol-2-yl)pyrrolidine-1-carbonyl)isonicotinamide]",301 to 500,< 100
"Cc1cc(C(=O)N[C@@H](Cc2ccccc2)[C@H](O)CNCc2cncc(C(C)C)c2)cc(C(=O)N2CCC[C@@H]2c2nc(C)co2)c1 [Compound 56, N-((2S,3R)-3-hydroxy-4-((5-isopropylpyridin-3-yl)methylamino)-1-phenylbutan-2-yl)-3-methyl-5-((R)-2-(4-methyloxazol-2-yl)pyrrolidine-1-carbonyl)benzamide]",< 300,< 100
"Cc1csc([C@H]2CCCN2C(=O)c2cc(C(=O)N[C@@H](Cc3ccccc3)[C@H](O)CNCc3cccc(C(F)(F)F)c3)cc(C(F)F)c2)n1 [Compound 57, 3-(difluoromethyl)-N-((2S,3R)-3-hydroxy-1-phenyl-4-(3-(trifluoromethyl)benzylamino)butan-2-yl)-5-((R)-2-(4-methylthiazol-2-yl)pyrrolidine-1-carbonyl)benzamide]",< 300,< 100
"Cc1csc([C@H]2COCN2C(=O)c2cccc(C(=O)N[C@@H](Cc3ccccc3)[C@H](O)CNCc3cccc(C(F)(F)F)c3)c2)n1 [Compound 26, N-((2S,3R)-3-hydroxy-1-phenyl-4-(3-(trifluoromethyl)benzylamino)butan-2-yl)-3-((R)-4-(4-methylthiazol-2-yl)oxazolidine-3-carbonyl)benzamide]",< 300,< 100
"Cc1coc([C@H]2CCCN2C(=O)c2cncc(C(=O)N[C@@H](Cc3ccccc3)[C@H](O)CNCc3cncc(C(C)C)c3)c2)n1 [Compound 71, N-((2S,3R)-3-hydroxy-4-((5-isopropylpyridin-3-yl)methylamino)-1-phenylbutan-2-yl)-5-((R)-2-(4-methyloxazol-2-yl)pyrrolidine-1-carbonyl)nicotinamide]",< 300,< 100
"Cc1cc(C(=O)N[C@@H](Cc2ccccc2)[C@H](O)CNCc2cncc(C(C)(C)F)c2)cc(C(=O)N2CCC[C@@H]2c2nc(C)co2)c1 [Compound 59, N-((2S,3R)-4-((5-(2-fluoropropan-2-yl)pyridin-3-yl)methylamino)-3-hydroxy-1-phenylbutan-2-yl)-3-methyl-5-((R)-2-(4-methyloxazol-2-yl)pyrrolidine-1-carbonyl)benzamide]",< 300,< 100
"COc1cc(C(=O)N[C@@H](Cc2ccccc2)[C@H](O)CNCc2cncc(C(C)C)c2)cc(C(=O)N2CCC[C@@H]2c2nc(C)cs2)c1 [Compound 83, N-((2S,3R)-3-hydroxy-4-((5-isopropylpyridin-3-yl)methylamino)-1-phenylbutan-2-yl)-3-methoxy-5-((R)-2-(4-methylthiazol-2-yl)pyrrolidine-1-carbonyl)benzamide]",< 300,< 100
"Cc1csc([C@H]2CCCN2C(=O)c2cc(C(=O)N[C@@H](Cc3ccccc3)[C@H](O)CNCc3cncc(C(C)C)c3)cc(-c3cnccn3)c2)n1 [Compound 43, N-((2S,3R)-3-hydroxy-4-((5-isopropylpyridin-3-yl)methylamino)-1-phenylbutan-2-yl)-3-((R)-2-(4-methylthiazol-2-yl)pyrrolidine-1-carbonyl)-5-(pyrazin-2-yl)benzamide]",< 300,< 100
"Cc1coc([C@H]2CCCN2C(=O)c2cccc(C(=O)N[C@@H](Cc3ccccc3)[C@H](O)CNCc3cncc(C(C)(C)F)c3)c2)n1 [Compound 39, N-((2S,3R)-4-((5-(2-fluoropropan-2-yl)pyridin-3-yl)methylamino)-3-hydroxy-1-phenylbutan-2-yl)-3-((R)-2-(4-methyloxazol-2-yl)pyrrolidine-1-carbonyl)benzamide]",< 300,< 100
"Cc1coc([C@H]2CCCN2C(=O)c2cncc(C(=O)N[C@@H](Cc3ccccc3)[C@H](O)CNCc3cncc(C(C)(C)F)c3)c2)n1 [Compound 73, N-((2S,3R)-4-((5-(2-fluoropropan-2-yl)pyridin-3-yl)methylamino)-3-hydroxy-1-phenylbutan-2-yl)-5-((R)-2-(4-methyloxazol-2-yl)pyrrolidine-1-carbonyl)nicotinamide]",< 300,< 100
"Cc1csc([C@H]2CCCN2C(=O)c2cc(C(=O)N[C@@H](Cc3ccccc3)[C@H](O)CNCc3cncc(C(C)(F)F)c3)cc(N(C)C)c2)n1 [Compound 40, N-((2S,3R)-4-((5-(1,1-difluoroethyl)pyridin-3-yl)methylamino)-3-hydroxy-1-phenylbutan-2-yl)-3-(dimethylamino)-5-((R)-2-(4-methylthiazol-2-yl)pyrrolidine-1-carbonyl)benzamide]",< 300,< 100
"Cc1csc([C@H]2CCCN2C(=O)c2cc(C(=O)N[C@@H](Cc3ccccc3)[C@H](O)CNCc3cccc(C(F)(F)F)c3)cc(-c3cnccn3)c2)n1 [Compound 49, N-((2S,3R)-3-hydroxy-1-phenyl-4-(3-(trifluoromethyl)benzylamino)butan-2-yl)-3-((R)-2-(4-methylthiazol-2-yl)pyrrolidine-1-carbonyl)-5-(pyrazin-2-yl)benzamide]",< 300,< 100
"COc1cc(C(=O)N[C@@H](Cc2ccccc2)[C@H](O)CNCc2cncc(C(C)C)c2)cc(C(=O)N2CCC[C@@H]2c2nc(C)co2)c1 [Compound 89, N-((2S,3R)-3-hydroxy-4-((5-isopropylpyridin-3-yl)methylamino)-1-phenylbutan-2-yl)-3-methoxy-5-((R)-2-(4-methyloxazol-2-yl)pyrrolidine-1-carbonyl)benzamide]",< 300,< 100
"Cc1coc([C@H]2CCCN2C(=O)c2cc(CF)cc(C(=O)N[C@@H](Cc3ccccc3)[C@H](O)CNCc3cccc(C(F)(F)F)c3)c2)n1 [Compound 82, 3-(fluoromethyl)-N-((2S,3R)-3-hydroxy-1-phenyl-4-(3-(trifluoromethyl)benzylamino)butan-2-yl)-5-((R)-2-(4-methyloxazol-2-yl)pyrrolidine-1-carbonyl)benzamide]",< 300,< 100
"Cc1cc(C(=O)N[C@@H](Cc2ccccc2)[C@H](O)CNCc2cncc(C(C)(C)F)c2)cc(C(=O)N2CCC[C@@H]2c2nc(C)cs2)c1 [Compound 42, N-((2S,3R)-4-((5-(2-fluoropropan-2-yl)pyridin-3-yl)methylamino)-3-hydroxy-1-phenylbutan-2-yl)-3-methyl-5-((R)-2-(4-methylthiazol-2-yl)pyrrolidine-1-carbonyl)benzamide]",< 300,< 100
"Cc1csc([C@H]2CCCN2C(=O)c2cccc(C(=O)N[C@@H](Cc3ccccc3)[C@H](O)CNCc3cncc(C(C)(C)F)c3)c2)n1 [Compound 45, N-((2S,3R)-4-((5-(2-fluoropropan-2-yl)pyridin-3-yl)methylamino)-3-hydroxy-1-phenylbutan-2-yl)-3-((R)-2-(4-methylthiazol-2-yl)pyrrolidine-1-carbonyl)benzamide]",< 300,< 100
"Cc1csc([C@H]2CCCN2C(=O)c2cncc(C(=O)N[C@@H](Cc3ccccc3)[C@H](O)CNCc3cncc(C(C)C)c3)c2)n1 [Compound 27, N-((2S,3R)-3-hydroxy-4-((5-isopropylpyridin-3-yl)methylamino)-1-phenylbutan-2-yl)-5-((R)-2-(4-methylthiazol-2-yl)pyrrolidine-1-carbonyl)nicotinamide]",< 300,< 100
